In the pKa sets of Baltruschat and Czodrowski (2020):

Details: acidic group

First: CCC(C)CC(=O)O (centres undefined)
Second: CSC(C)C(=O)O (centres undefined)
The pKa of the first is higher: 4.84 for the first, 3.76 for the second.

Compared with `O=C(NO)c1ccccn1`, `O=C(Cc1ccccc1)NO` is higher in pKa: 8.6 for the first, 9.26 for the second.

First: Oc1cnc2ccccc2c1
Second: Oc1cc2cccnc2c2cccnc12
The pKa of the first is lower: 8.06 for the first, 8.5 for the second.

Going from `COc1ccc2c(c1)CCC(=O)C2` to `COc1ccc(O)c(N)c1`, the pKa falls from 13.3 to 10.

`S=CNc1ccc(Cl)cc1` and `NC(=S)Nc1ccc([N+](=O)[O-])cc1` are the same in pKa: 10.8 for the first, 10.8 for the second.

Compared with `Brc1ccc([P+](c2ccccc2)(c2ccccc2)C2c3ccccc3-c3ccccc32)cc1`, `O=C(Oc1ccc(Cl)cc1)C1c2ccccc2-c2ccccc21` is higher in pKa: 8.67 for the first, 10.3 for the second.

Going from `CC(C(N)=O)S(N)(=O)=O` (centres undefined) to `NS(=O)(=O)C(F)(F)Cl`, the pKa falls from 9.86 to 6.5.

First: O=[N+]([O-])c1cc2cc(O)ccc2cc1Cl
Second: Oc1ccc2ccc(Cl)cc2c1
The pKa of the first is lower: 8.56 for the first, 9.09 for the second.

Going from `CCOC(=O)c1ccc(O)cc1` to `CS(=O)c1ccc(O)cc1` (centres undefined), the pKa falls from 9.34 to 8.28.

Going from `N#Cc1ccc(O)cc1` to `[O-]c1ccc(-c2ccc(O)cc2)cc1`, the pKa rises from 7.89 to 14.1.

Compared with `CC(C)(C#N)CC(=O)O`, `CC(=O)N(C)O` is higher in pKa: 4.04 for the first, 8.73 for the second.

First: CC(=O)Nc1cccc(O)c1
Second: Cc1cccc(Br)c1C(=O)O
The pKa of the first is higher: 9.38 for the first, 2.71 for the second.

Going from `CCOC(=O)/C(=N\O)C(C)=O` to `C/C(=C\C=C\C(C)C(=O)O)[C@H]1C[NH2+][C@H](C(=O)O)[C@H]1CC(=O)O` (some centres undefined), the pKa falls from 7.2 to 2.1.

Compared with `Fc1ccc(NC(=S)c2ccccc2)cc1`, `S=C(Nc1ccc(Br)cc1)c1ccccc1` is lower in pKa: 10.8 for the first, 10.4 for the second.

Going from `O=NCC(=O)c1cccnc1` to `COC(=O)/C=C(\O)c1ccncc1`, the pKa falls from 7.8 to 7.51.

First: CC1=CC(C)=Nc2ccc(C)cc2N1
Second: COc1ccc2c3c([nH]c2c1)C(C)=NCC3
The pKa of the first is lower: 5.8 for the first, 15.3 for the second.

Going from `O=C(c1ccccc1)c1cc[nH]n1` to `C[N+](C)(C)/N=C(/O)c1ccccc1`, the pKa falls from 12 to 4.29.

First: Cc1ncc(CO)c(C)c1O
Second: OCc1ccc(O)c(CO)c1
The pKa of the first is higher: 9.98 for the first, 9.77 for the second.

Going from `Cc1ccc(C(=O)C[n+]2cccc3c4ccccc4ccc32)cc1` to `Cc1cc(/N=N/c2nc3ccccc3s2)c2cccnc2c1O`, the pKa falls from 11.7 to 7.5.

Going from `NS(=O)(=O)c1cc2c(cc1Cl)N=CNS2(=O)=O` to `NS(=O)(=O)c1ccccc1`, the pKa rises from 6.7 to 9.7.

Going from `CSc1nc2ncncc2[nH]1` to `CN(C)c1ncc2[nH]cnc2n1`, the pKa rises from 7.67 to 10.2.

First: CC[N+](O)(CC)CC
Second: CCc1c(O)ccc(C(C)C)c1C
The pKa of the first is lower: 5.13 for the first, 10.8 for the second.

Going from `Cc1cc(-c2c(C)noc2O)on1` to `Cc1nnc(C)n1N`, the pKa rises from 3.2 to 9.85.

Going from `Oc1cccc2cn[nH]c12` to `O=C(O)CNC(=O)c1cccc(O)c1O`, the pKa falls from 8.6 to 3.5.

Going from `N#CC(CCCC(=O)O)c1ccccc1` (centres undefined) to `O=C(O)CSc1ccccc1[N+](=O)[O-]`, the pKa falls from 4.64 to 3.18.

Going from `Nc1ccccc1[N+](=O)[O-]` to `O=C(O)c1ccccc1Br`, the pKa falls from 13.4 to 2.93.

Going from `CC(S)C(=O)[O-]` (centres undefined) to `OCC(S)C[S-]` (centres undefined), the pKa rises from 10.1 to 10.6.

Compared with `CC(C)([SeH])C[NH3+]`, `C[C@@H]1CC[C@H](C)[C@H]1C(=O)O` is lower in pKa: 5.21 for the first, 4.69 for the second.

First: O=C(O)C[NH2+]CCc1nnn[nH]1
Second: O=C(O)C#CBr
The pKa of the first is higher: 3.28 for the first, 1.9 for the second.

First: CCOc1ccccc1/C=C\C(=O)O
Second: COc1ccccc1/C=C/C(=O)O
The pKa of the first is lower: 4.35 for the first, 4.57 for the second.

Compared with `NNC(=O)CF`, `N#CCC[n+]1cccc(C(N)=O)c1.[Br-]` is higher in pKa: 11.3 for the first, 13.2 for the second.

Compared with `CC(C)CCC[NH+](C)CCCNC(=O)/C=N/O`, `C/C=C/C=C/C(=O)O` is lower in pKa: 8.72 for the first, 4.53 for the second.

Compared with `COc1cccc(/C=N/O)c1`, `C[n+]1ccc2cc(O)ccc2c1` is lower in pKa: 10.6 for the first, 6.06 for the second.

Going from `O=C(O)[C@@H]1C[C@@H]1Cl` to `O=[N+]([O-])c1n[nH]c(-n2cnc(Br)n2)n1`, the pKa falls from 4.12 to 1.63.

Same assay, conditions: basic group

Going from `CCCCN(CC[S-])CCCC` to `CCN(CC)CCO`, the pKa falls from 11.6 to 9.84.

Compared with `COc1ccc(CN)cc1N`, `COc1ccc(Nc2ccccc2)cc1` is lower in pKa: 9.77 for the first, 1.38 for the second.

First: C#C[C@]1(O)C[C@@H](C)N(C)[C@H]2CCCC[C@@H]21
Second: OC[C@H]1CCN2CCC[C@@H]12
The pKa of the first is lower: 8.99 for the first, 10.9 for the second.

Going from `CCc1cc(Cl)n(C)c2nc3ccccc3c1-2` to `O=[N+]([O-])c1cccc2nc3ccccc3c(NCCO)c12`, the pKa falls from 7.46 to 7.2.

Going from `c1cncc(-c2ccco2)c1` to `Oc1cnc2ccccc2c1`, the pKa falls from 4.62 to 4.3.

Compared with `C[C@@H]1N[C@H](CCCCCCCC(=O)[O-])CC[C@@H]1O`, `CCOC(=O)CCCc1ccccn1` is lower in pKa: 10.4 for the first, 5.32 for the second.

First: Cc1nc2cc(C(=O)[O-])ccc2[nH]1
Second: CCNCC(=O)c1ccc(O)cc1
The pKa of the first is lower: 6 for the first, 7.77 for the second.

Going from `c1ccc(N(CC2CO2)CC2CO2)cc1` (centres undefined) to `OCC[NH+](CCO)Cc1nc2ccccc2[nH]1`, the pKa rises from -0.4 to 2.15.

First: C[NH+](C)CCNc1ccnc2cccc([N+](=O)[O-])c12
Second: CCN(CC)CCCC(C)Nc1ccnc2ccc(OC)cc12 (centres undefined)
The pKa of the first is lower: 5.77 for the first, 10.2 for the second.

First: Cc1cc([C@@H](N)CO)c(O)c([C@@H](N)CO)c1
Second: Nc1ccc(Sc2ccc(N)cc2)cc1
The pKa of the first is higher: 9 for the first, 4.25 for the second.

`COCc1nc2c(n1C)C(=O)c1ncnc([O-])c1C2=O` gave a pKa of 6.17.
